Measurements taken from ChEMBL document CHEMBL3414453, “Design and optimization of hybrid of 2,4-diaminopyrimidine and arylthiazole scaffold as anticancer cell proliferation and migration agents” (Eur J Med Chem, 2015).

Legend:
MDA-MB-231 = assay: Cytotoxicity against human MDA-MB-231 cells assessed as growth inhibition after 48 hrs by sulforhodamine B assay; format: functional, cell-based; conditions: MDA-MB-231, 48 h
MCF7 = assay: Cytotoxicity against human MCF7 cells assessed as growth inhibition after 48 hrs by sulforhodamine B assay; format: functional, cell-based; conditions: MCF7, 48 h

Cc1nc(Nc2ncc(C(=O)Nc3c(C)cccc3Cl)s2)cc(N2CCN(CCO)CC2)n1 [DASATINIB]
IC50 (MDA-MB-231): 1120 nM | IC50 (MCF7): 8.05 µM
